In patent US6413495B1, “X-ray intercepting metal complexes of chlorin derivatives” (Meiji Seika Kaisha, Ltd., priority 1998, dated 2002):

Tests used:
[1] = tested on: CD-1 mice (male); settings: oral administration; cited from earlier work
[2] = tested on: CD-1 mice (male); assay: Acute toxicity by oral administration to mice; format: in vivo
Method: The acute toxicity, as tested by oral administration to CD-1 mice (male), of mono-L-aspartyl chlorin e6 tetra-sodium salt is already known to be such that its 50% lethal dose is 164 mg/kg, and thus the compound is of a low toxicity (refer to Japanese Patent Application Publication Kokai Hei 9-71531).

[3] = tested on: MKSA cells (solid ascites carcinoma in the abdominal region); assay: Test Example 1: detection and therapy of tumor tissue by X-ray radiography (solid ascites carcinoma); format: in vivo, Male Balb/c mice
Method: (§1) Male Balb/c mice having a body weight of 16˜20 g (five mice per group) were inoculated, in their abdominal region, with MKSA cells to form a solid ascites carcinoma in the abdominal region of mouse. The mono-L-aspartyl chlorin e6-gold complex sodium salt (the product of Example 2 above) was administered at a dose of 0.01˜0.04 mg in the form of a physiological saline solution of said gold complex sodium salt to the cancer-bearing mice through their tail vein. At the end of one hour to three hours after the administration, the mice were anesthetized with nembutal. An X-ray beam containing the X-ray of the wavelength of 0.153 Å was irradiated from outside of the body to the abdominal region of the mice for an appropriate time.
X-ray image was formed by allowing the X-ray to pass through the abdominal region of mice and to expose and sensitize an X-ray film.
Thus, it was found and confirmed that the gold complex of the chlorin e6 derivative as administered to mice had exerted a cytocidal action to the ascites carcinoma cells upon the irradiation of X-ray to mice.

[4] = tested on: lesions of arteriosclerosis of artery; assay: Test Example 2: detection and therapy of lesions of arteriosclerosis by X-ray radiography; format: in vivo, rabbit; settings: 8 mg via ear vein
Method: To a rabbit having a high cholesteremia and a body weight of about 4 kg was administered 8 mg of the mono-L-aspartyl chlorin e6-gold complex sodium salt (the product of Example 2) through the ear vein. One hour after the administration, anesthesia with nembutal was done to the rabbit. Then, the whole body of the rabbit was irradiated for an appropriate time with an X-ray beam containing the X-ray of the wavelength of 0.153 Å which suited to the electron absorption of the K-shell of gold atom. The X-ray which had passed through the rabbit was allowed to sensitize an X-ray film and to produce X-ray image.

[5] = tested on: PC-10 cells originated from human lung cancer; assay: Test Example 3: X-ray radiography of PC-10 solid cancer on the back of nude mice; format: in vivo; settings: nude mice with PC-10 solid cancer on the back; procedure of Test Example 1
Method: as §1
The procedure of Test Example 1 was repeated except that the ascites carcinoma-bearing used in Test Example 1 were replaced by nude mice which had on the back of the body a solid cancer as formed by transplantation of PC-10 cells originated from human lung cancer.

Row | Compound | 50% lethal dose (acute toxicity) [1] [mg/kg] | acute toxicity upon oral administration, compared with mono-L-aspartyl chlorin e6 tetrasodium salt [2] | X-ray image of the solid cancer on X-ray film ([3]; 0.01~0.04 mg i.v. (tail vein), X-ray beam containing 0.153 Å irradiated 1-3 hours after administration) | dimensions of the solid cancer compared with those at the time of the X-ray photograph ([3]; one week after the X-ray irradiation, 0.01~0.04 mg i.v.) | X-ray image of the lesions of arteriosclerosis ([4]; rabbit with high cholesteremia, X-ray beam containing 0.153 Å one hour after administration) | dimensions of the lesions of arteriosclerosis compared with those at the time of X-ray irradiation ([4]; one week after the X-ray irradiation) | X-ray image of the solid cancer on X-ray film [5]
1 | C=Cc1c(C)c2cc3nc(c(CC(=O)N[C@@H](CC(=O)[O-])C(=O)[O-])c4[nH]c(cc5nc(cc1[nH]2)C(C)=C5CC)c(C)c4C(=O)[O-])[C@@H](CCC(=O)[O-])[C@@H]3C.[Na+].[Na+].[Na+].[Na+] [mono-L-aspartyl chlorin e6 tetra-sodium salt] | 164 |  |  |  |  |  | 
2 | mono-L-aspartyl chlorin e6-gold complex sodium salt [Example 2] |  | substantially same as that of the mono-L-aspartyl chlorin e6 tetrasodium salt | sharply imaged | reduced significantly | sharp X-ray image | clearly diminished | Sharp X-ray image
